Read-outs that look alike come from different tables or passages of the source.
Experiments:
[1] = One-photon excitation (1PE) photolysis with 365 nm LED, HPLC quantification; assay type: physicochemical; conditions: for t90% (time required to consume 90% of the starting material): 1PE 365 nm LED, lamp intensity differs per compound (Table S1)
Protocol: A 0.1 mM solution (3 mL) of each protected phenol in KMOPS buffer (10 or 20% CH3CN was used as a cosolvent for 3d and 6c) was placed in a 3 mL quartz cuvette along with a stirring bar. The solution was irradiated with stirring using a 365 nm LED lamp (Cairn OptoLED Lite). At different time intervals, 80 μL aliquots of the solution were taken out and analyzed by uHPLC (Agilent 1290 Infinity series), monitoring the AUC at 320 nm (Supporting Information, HPLC Data). An external standard calibration method of quantification was used for the calibration of the samples. The experiments were repeated in sets of three. A gradient elution with a flux rate of 0.3 mL/min using a mobile phase comprising A = 0.1% trifluoroacetic acid in water and B = acetonitrile (starting from 5% B to 100% over 10 min and re-equilibrating to 5% B before the next run) was used for the separations. A comparison of the AUC with the calibration curves of the substrates (obtained from known concentration) determined the percentages of the remaining starting materials. The percentages of the remaining starting materials were plotted versus time. The time to 90% of decomposition of the substrate (t90% values) was obtained by fitting a single exponential decay curve to the data using DeltaGraph (Red Rock Software). The following equation was used to calculate the quantum yield (Φu) of each photolysis reaction:[42],[47],[56],[57] Φu = (I σ t90%)^−1, where I is the irradiation intensity (determined by potassium ferrioxalate actinometry and measured in Einstein cm^–2 s^–1),[58] σ is the decadic extinction coefficient (1000 × ε) at 365 nm, and t90% is the time required to consume 90% of the starting material. See Supporting Information Table S1 for the I, σ, and t90% data.

[2] = test system: dLight 1.2; assay: Activation of dLight 1.2 on HCT 116 cells by photoreleased dopamine; assay type: cell-based; conditions: for dLight 1.2 response after photoactivation (1PE): 10 μM
Protocol: (§1) HCT 116 cells were grown in Dulbecco’s […] medium (DMEM) supplemented with 10% fetal bovine serum (FBS), 1% nonessential amino acids (NEAA), and maintained at 37 °C and 5% CO2. HEK 293 cells stably expressing TRPV1 channels were grown as previously described.[62]
(§2) An Olympus FluoView FV1000MPE confocal microscope was employed to image and record cells plated onto 35 mm glass-bottom 4-well plates. A 488 nm ion laser excited the dopamine and serotonin sensors dLight 1.2 and GRAB5-HT, respectively, and Fluo-4 calcium dye. FluoView 10-ASW version 4.0 (Olympus), ImageJ-Fiji, and DeltaGraph (Red Rock Software) were used for capturing, extracting, and processing the collected data. Photoactivation was conducted with 405 nm (100% laser power, 1PE) or 720 nm (10% laser power, 24 mW, 2PE) light for MeO-CyHQ-O-DA and MeO-CyHQ-O-5HT or 740 nm (20% laser power, 15 mW light) for MeO-CyHQ-O-VNA and MeO-CyHQ-O-EG. Images were captured by using a 60× immersion lens.
(§3) HCT 116 cells were grown to 70% confluency on specialized glass-bottom plates for imaging. After 24 h, the cells were transfected (70% efficiency) with either dLight 1.2 or GRAB5-HT. Before imaging, the DMEM was discarded and the cells were washed twice with HBSS. HBSS (500 μL) was added per well for imaging. DMSO was used to dissolve the compounds CyHQ-O-DA, MeO-CyHQ-O-DA, and MeO-CyHQ-O-5HT to make 1 mM stock solutions. These were then added to the wells to obtain the desired final concentrations, keeping the DMSO concentration to less than 1%, which is tolerated by the cells. Control experiments included optimization of the response of the dLight 1.2 and GRAB5-HT sensors to the release of dopamine and serotonin, respectively, through exposure to different concentrations of CyHQ-O-DA, MeO-CyHQ-O-DA, and MeO-CyHQ-O-5HT at different durations of 405 nm light. Optimizations were conducted in a similar manner for activation through 2PE. Light dose–response curves were generated by applying a 405 nm light pulse for 1, 10, 50, 100, 200, 300, 400, 500, 600, 750, and 1000 ms at 50 frame intervals for CyHQ-O-DA, MeO-CyHQ-O-DA, and MeO-CyHQ-O-5HT.

[3] = Solubility in KMOPS buffer pH 7.2; assay type: physicochemical; conditions: aqueous buffer; KMOPS buffer, pH 7.2; read-out: solubility
Excerpt: The photochemical and photophysical properties were investigated in a simulated physiological buffer (KMOPS, pH 7.2) and compared with the literature data for CyHQ-O-DA (Table 1). […] For this derivative, 10% CH3CN in the buffer was used to ensure complete solubilization for the photochemistry experiments. The spontaneous hydrolysis in the dark was monitored over a period of 7 days and no significant hydrolysis was detected for any of the constructs. The molar absorptivity at the wavelength used for 1PE photolysis (ε365) ranged between 4800 and 5670 M^–1 cm^–1, in line with the values of most CyHQ-based PPGs.
The photochemical behavior of constructs 4–7c was investigated in KMOPS buffer at the concentration of 0.1 mM. Under these conditions, all compounds were soluble except for the VNA analogue 6c, which, because of the lipophilicity of the vanilloid, required 20% CH3CN for full solubilization. The stability toward hydrolysis in the dark was monitored over a week, and no significant decomposition was detected for any probe. All constructs were successfully photolyzed after light exposure, as shown in the time courses of the photolysis reactions (Figure 3). MeO-CyHQ constructs 4c, 6c, and 7c were photoactivated with excellent quantum efficiency and sensitivities, and good chemical yields were obtained by monitoring the appearance of the released bioeffector over the time course of the photoreaction (Table 1). […] We believe this effect is due to the presence of the thiophene ring, a well-known photoactive group,[51] which could act as an energy sink in the excited state and quench the photochemical reaction.

[4] = Spontaneous hydrolysis in the dark; assay type: physicochemical; conditions: 0.1 mM in KMOPS pH 7.2, dark, 7 days
Protocol: A 0.1 mM solution of each compound was prepared in KMOPS buffer. For compounds 3d and 6c, 20% CH3CN was used as a cosolvent. The solutions were kept in the dark for 7 days, and the percentage of the starting materials was determined by periodic HPLC analysis (Supporting Information, HPLC Data).

[5] = UV-vis spectra and molar extinction coefficient in KMOPS buffer; assay type: physicochemical; conditions: 0.1 mM in KMOPS buffer, pH 7.2 (3d, 6c: 10 or 20% CH3CN added)
Protocol: A 100 μM solution of each protected phenol was prepared in KMOPS buffer (20% CH3CN was used as a cosolvent for compounds 3d and 6c). The UV–vis spectra of these solutions were recorded at between 250 and 500 nm. All of the measurements were repeated in triplicate, and the absorbance values were averaged. The Beer–Lambert law, ε = A(cl)^−1, was used for the calculation of ε values at λ = 365 nm, where A is the absorbance value measured at 365 nm, c is the concentration of the sample, and l is the cuvette length (1 cm). See the Supporting Information for the spectra.

[6] = test system: GRAB5-HT; assay: Activation of GRAB5-HT on HCT 116 cells by photoreleased serotonin; assay type: cell-based
Protocol: as §1, §2
as §3, with “Light dose–response curves were generated by applying a 405 nm light pulse for 1, 10, 50, 100, 200, 300, 400, 500, 600, 750, and 1000 ms at 50 frame intervals for CyHQ-O-DA, MeO-CyHQ-O-DA, and MeO-CyHQ-O-5HT.” left out

[7] = design: method as in PMID 32077679; conditions: KMOPS buffer, pH 7.2; cited from earlier work
[8] = design: method as in PMID 32077679; conditions: cited from earlier work
[9] = design: method as in PMID 32077679; conditions: KMOPS buffer, pH 7.2; cited from earlier work; remark: listed apart in the source

COc1cc(COc2ccc(CCN)cc2O)nc2c(C#N)c(O)ccc12.O=C(O)C(F)(F)F [3c, 2-(4-((8-Cyano-7-hydroxy-4-methoxyquinolin-2-yl)methoxy)-3-hydroxyphenyl)ethan-1-aminium 2,2,2-trifluoroacetate]
t90% (time required to consume 90% of the starting material) [1]: 25.4 s
irradiation time to complete the 1PE photolysis reaction ([1]; 365 nm): less than 1 min
dLight 1.2 response after photoactivation (1PE) ([2]; 10 ms flash of 405 nm light): robust response
dLight 1.2 response after photoactivation (2PE) ([2]; 100 μM, 200 ms flash of 720 nm light): activated dLight 1.2
solubility [3]: > 100 µM
τd (time constant of spontaneous hydrolysis in buffer in the dark at room temperature) [4]: nh (No hydrolysis (<5% detected after 7 days))
ε365 [5]: 5670 M^–1 cm^–1
λmax [5]: 354 nm

COc1cc(COc2ccc3[nH]cc(CCN)c3c2)nc2c(C#N)c(O)ccc12.O=C(O)C(F)(F)F [4c, 2-(5-((8-Cyano-7-hydroxy-4-methoxyquinolin-2-yl)methoxy)-1H-indol-3-yl)ethan-1-aminium 2,2,2-trifluoroacetate]
t90% (time required to consume 90% of the starting material) [1]: 18.4 s
solubility [3]: > 100 µM
τd (time constant of spontaneous hydrolysis in buffer in the dark at room temperature) [4]: nh (No hydrolysis (<5% detected after 7 days))
GRAB5-HT response after photoactivation (1PE) ([6]; 20 μM, 20 ms burst of 405 nm light): robust response
GRAB5-HT response after photoactivation (2PE) ([6]; 200 μM, 200 ms pulse of 720 nm light): robust response
light pulse duration at which the GRAB5-HT response plateaus ([6]; 405 nm (1PE), 20 μM): around 200 ms
ε365 [5]: 5400 M^–1 cm^–1
λmax [5]: 355 nm

N#Cc1c(O)ccc2ccc(COc3cc(CCN)ccc3O)nc12 [CyHQ-O-DA]
solubility [7]: >100 µM
dLight 1.2 response after photoactivation (1PE) ([2]; 405 nm light pulse): increase in fluorescence output
τd (time constant of spontaneous hydrolysis in buffer in the dark at room temperature) [8]: nh ^g (No hydrolysis (<5% detected after 7 days))
ε365 [9]: 5300 M^–1 cm^–1
λmax [9]: 365 nm

NCCc1ccc(O)c(O)c1 [dopamine, reference compound]
dLight 1.2 response to bulk addition ([2]; 100 μM, no photoactivation): increase in fluorescence output
